From US6355799B1, “Substituted benzene compounds, process for their preparation, and herbicidal and defoliant compositions containing them” (ISK Americas Incorporated, priority 1997, dated 2002)

Columns and labels:
Type in all cases: in vivo
[1] = test system: upland rice (Oryza sp., var. Tebonnet, RICE); assay: Pre-emerge test, crop safety; settings: pre-emerge, 14 days after application, rating scale 0-100
Outline: (§1)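 Sandy loam pots; pre-emerge: sown 1 d pre-spray, surface-watered after, then bottom-watered. Post-emerge: sown 8–21 d before, 2–3 leaf stage, + 0.25% v/v NIS, bottom-watered. Acetone, 187 l/ha track spray, 15–1000 g ai/ha. 0–100 injury score, day 14.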

[2] = test system: field corn (Zea mays L., var. Dekalb 535, CORN); assay: Pre-emerge test, crop safety; settings: pre-emerge, 14 days after application, rating scale 0-100
Outline: as §1

[3] = test system: redroot pigweed (Amaranthus retroflexus, AMARE); assay: Pre-emerge test, greenhouse herbicide activity screening; settings: pre-emerge, 14 days after application, rating scale 0-100
Outline: (§2)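 Plants grown in 10 cm pots of sandy loam mix received acetone-dissolved compounds through a moving flat-fan nozzle. Doses ranged from 15 to 1000 g ai/ha. Pre-emerge pots were seeded one day earlier, post-emerge pots 8–21 days earlier. Fourteen days on, each pot was graded 0–100 for damage.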

[4] = test system: velvetleaf (Abutilon theophrasti, ABUTH); assay: as above; settings: pre-emerge, 14 days after application, rating scale 0-100
Outline: as §2

[5] = test system: johnsongrass (Sorghum halepense, SORHA); assay: as above; settings: pre-emerge, 14 days after application, rating scale 0-100
Outline: as §2

[6] = test system: green foxtail (Setaria viridis, SETVI); assay: as above; settings: pre-emerge, 14 days after application, rating scale 0-100
Outline: as §2

[7] = test system: sicklepod (Cassia obtusifolia, CASOB); assay: as above; settings: pre-emerge, 14 days after application, rating scale 0-100
Outline: as §2

[8] = test system: large crabgrass (Digitaria sanguinalis, DIGSA); assay: as above; settings: pre-emerge, 14 days after application, rating scale 0-100
Outline: as §2

[9] = test system: lambsquarters (Chenopodium album, CHEAL); assay: as above; settings: pre-emerge, 14 days after application, rating scale 0-100
Outline: as §2

[10] = test system: ivyleaf morningglory (Ipomoea hederacea, IPOHE); assay: as above; settings: pre-emerge, 14 days after application, rating scale 0-100
Outline: as §2

[11] = test system: barnyardgrass (Echinochloa crus-galli, ECHCG); assay: as above; settings: pre-emerge, 14 days after application, rating scale 0-100
Outline: as §2

[12] = test system: upland rice (Oryza sp., var. Tebonnet, RICE); assay: Post-emerge test, crop safety; settings: post-emerge, 14 days after application, rating scale 0-100
Outline: (§3)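 Each test used a mechanized track sprayer delivering 187 l/ha of acetone solution at 15–1000 g ai/ha. Post-emerge foliage at 2–3 leaves was treated with added 0.25% v/v non-ionic surfactant and bottom-watered only. Injury was assessed on day 14, where 100 means total kill.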

[13] = test system: field corn (Zea mays L., var. Dekalb 535, CORN); assay: Post-emerge test, crop safety; settings: post-emerge, 14 days after application, rating scale 0-100
Outline: as §3

[14] = test system: velvetleaf (Abutilon theophrasti, ABUTH); assay: Post-emerge test, greenhouse herbicide activity screening; settings: post-emerge, 14 days after application, rating scale 0-100
Outline: (§4)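 Compounds in acetone were track-sprayed at 15-1000 g ai/ha (187 l/ha) on sandy loam pots: pre-emerge one day after seeding, post-emerge at 2-3 leaf stage with 0.25% v/v non-ionic surfactant. Phytotoxicity was rated 14 days later on a 0 (no damage) to 100 (complete death) scale.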

[15] = test system: johnsongrass (Sorghum halepense, SORHA); assay: as above; settings: post-emerge, 14 days after application, rating scale 0-100
Outline: as §4

[16] = test system: green foxtail (Setaria viridis, SETVI); assay: as above; settings: post-emerge, 14 days after application, rating scale 0-100
Outline: as §4

[17] = test system: sicklepod (Cassia obtusifolia, CASOB); assay: as above; settings: post-emerge, 14 days after application, rating scale 0-100
Outline: as §4

[18] = test system: large crabgrass (Digitaria sanguinalis, DIGSA); assay: as above; settings: post-emerge, 14 days after application, rating scale 0-100
Outline: as §4

[19] = test system: lambsquarters (Chenopodium album, CHEAL); assay: as above; settings: post-emerge, 14 days after application, rating scale 0-100
Outline: as §4

[20] = test system: ivyleaf morningglory (Ipomoea hederacea, IPOHE); assay: as above; settings: post-emerge, 14 days after application, rating scale 0-100
Outline: as §4

[21] = test system: barnyardgrass (Echinochloa crus-galli, ECHCG); assay: as above; settings: post-emerge, 14 days after application, rating scale 0-100
Outline: as §4

[22] = test system: redroot pigweed (Amaranthus retroflexus, AMARE); assay: as above; settings: post-emerge, 14 days after application
Outline: as §4

## CCOC(=O)CC(C)=NNc1c(OC)c(Cl)cc(F)c1-n1c(=O)cc(C(F)(F)F)n(C)c1=O [15-16]
[1]; 63 g ai/ha
  phytotoxicity rating RICE: 90
[1]; 250 g ai/ha
  phytotoxicity rating RICE: 100
[2]; 63 g ai/ha
  phytotoxicity rating CORN: 65
[2]; 250 g ai/ha
  phytotoxicity rating CORN: 100
[3]; 63 g ai/ha
  phytotoxicity rating AMARE: 100
[3]; 250 g ai/ha
  phytotoxicity rating AMARE: 100
[4]; 63 g ai/ha
  phytotoxicity rating ABUTH: 100
[4]; 250 g ai/ha
  phytotoxicity rating ABUTH: 100
[5]; 63 g ai/ha
  phytotoxicity rating SORHA: 100
[5]; 250 g ai/ha
  phytotoxicity rating SORHA: 100
[6]; 63 g ai/ha
  phytotoxicity rating SETVI: 100
[6]; 250 g ai/ha
  phytotoxicity rating SETVI: 100
[7]; 63 g ai/ha
  phytotoxicity rating CASOB: 90
[7]; 250 g ai/ha
  phytotoxicity rating CASOB: 100
[8]; 63 g ai/ha
  phytotoxicity rating DIGSA: 100
[8]; 250 g ai/ha
  phytotoxicity rating DIGSA: 100
[9]; 63 g ai/ha
  phytotoxicity rating CHEAL: 100
[9]; 250 g ai/ha
  phytotoxicity rating CHEAL: 100
[10]; 63 g ai/ha
  phytotoxicity rating IPOHE: 90
[10]; 250 g ai/ha
  phytotoxicity rating IPOHE: 100
[11]; 63 g ai/ha
  phytotoxicity rating ECHCG: 80
[11]; 250 g ai/ha
  phytotoxicity rating ECHCG: 100
[12]; 63 g ai/ha
  Post-emerge Herbicidal Activity RICE (crop damage rating): 40
[12]; 250 g ai/ha
  Post-emerge Herbicidal Activity RICE (crop damage rating): 80
[13]; 63 g ai/ha
  Post-emerge Herbicidal Activity CORN (crop damage rating): 15
[13]; 250 g ai/ha
  Post-emerge Herbicidal Activity CORN (crop damage rating): 45
[14]; 63 g ai/ha
  Post-emerge Herbicidal Activity ABUTH (phytotoxicity rating): 100
[14]; 250 g ai/ha
  Post-emerge Herbicidal Activity ABUTH (phytotoxicity rating): 100
[15]; 63 g ai/ha
  Post-emerge Herbicidal Activity SORHA (phytotoxicity rating): 10
[15]; 250 g ai/ha
  Post-emerge Herbicidal Activity SORHA (phytotoxicity rating): 70
[16]; 63 g ai/ha
  Post-emerge Herbicidal Activity SETVI (phytotoxicity rating): 30
[16]; 250 g ai/ha
  Post-emerge Herbicidal Activity SETVI (phytotoxicity rating): 60
[17]; 63 g ai/ha
  Post-emerge Herbicidal Activity CASOB (phytotoxicity rating): 80
[17]; 250 g ai/ha
  Post-emerge Herbicidal Activity CASOB (phytotoxicity rating): 100
[18]; 63 g ai/ha
  Post-emerge Herbicidal Activity DIGSA (phytotoxicity rating): 20
[18]; 250 g ai/ha
  Post-emerge Herbicidal Activity DIGSA (phytotoxicity rating): 80
[19]; 63 g ai/ha
  Post-emerge Herbicidal Activity CHEAL (phytotoxicity rating): 100
[19]; 250 g ai/ha
  Post-emerge Herbicidal Activity CHEAL (phytotoxicity rating): 100
[20]; 63 g ai/ha
  Post-emerge Herbicidal Activity IPOHE (phytotoxicity rating): 100
[20]; 250 g ai/ha
  Post-emerge Herbicidal Activity IPOHE (phytotoxicity rating): 100
[21]; 63 g ai/ha
  Post-emerge Herbicidal Activity ECHCG (phytotoxicity rating): 10
[21]; 250 g ai/ha
  Post-emerge Herbicidal Activity ECHCG (phytotoxicity rating): 90
[22]; 63 g ai/ha, rating scale 0-100 (0 no damage, 100 complete death)
  Post-emerge Herbicidal Activity AMARE (phytotoxicity rating): 80
[22]; 250 g ai/ha, rating scale 0-100
  Post-emerge Herbicidal Activity AMARE (phytotoxicity rating): 100
